The values that follow come from publication PMC3591338, “Kinetics of Isomerization and Inversion of Aspartate 58 of αA-Crystallin Peptide Mimics under Physiological Conditions” (PLoS ONE, 2013).

Each structure is given as a SMILES string. Where a SMILES comes first, the peptide text is derived from it.

The series is described as follows: Heating experiments: succinimide formation (dehydration) from Asp isomer peptides. As to conditions: chemical stability, PBS pH 7.4, 70°C, RP-HPLC peak areas, 215 nm. In kind it is physicochemical. Here is the method:
To determine the rate constant for the conversion the Asp isomers to succinimides in the T6 peptide, the T6-Lα, T6-Lβ, T6-Dα and T6-Dβ peptides were dissolved in PBS (pH7.4) and were incubated at 50, 60, 70, 80, and 90°C for 0.4–31 days.
After the incubation of the 4 isomeric peptides, these peptides were subjected to HPLC. Since the four isomeric T6 peptides are clearly separated by RP-HPLC chromatography, we can measure the relative amounts of the peptides produced by the incubation from the peak areas of the 4 isomeric peptides in the chromatogram. The results are as follows: [drawing 11] (4 - 1) [drawing 12] (4 - 2) [drawing 13] (4 - 3) [drawing 14] (4 - 4) where [L-α-Asp]%, [L-β-Asp]%, [D-α-Asp]%, and [D-β-Asp]% are relative amounts (%) of L-α-Asp, L-β-Asp, D-α-Asp and D-β-Asp, and [L-α-Asp], [L-β-Asp], [D-α-Asp] and [D-β-Asp] represent the concentration of L-α-Asp, L-β-Asp, D-α-Asp and D-β-Asp respectively, which are calculated from the peak area in the RP-HPLC chromatogram. We plotted the relative amounts against incubation time. Subsequently, we drew fitted curves for this plot as follows:f1(t) for L-α-Asp, f2(t) for L-β-Asp, f3(t) for D-α-Asp, f4(t) for D-β-Asp.
The rate constants of the conversion of the peptide isomers can be expressed as follows: [drawing 15] (5 - 1) [drawing 16] (5 - 2) [drawing 17] (5 - 3) [drawing 18] (5 - 4) where [L-succinimide]% and [D-succinimide]% represent the relative amounts of L-succinimide and D-succinimide as a percentage, t is time (day), k1 is the rate constant for the conversion of L-α-Asp to L-succinimide (day^−1), k2 is the rate constant for the conversionof L-succinimide to L-α-Asp (day^−1), k3 is the rate constant for the conversion of L-β-Asp to L-succinimide (day^−1), k4 is the rate constant for the conversion of L-succinimide to L-β-Asp (day^−1), k5 is the rate constant for the conversion of D-α-Asp to D-succinimide (day^−1), k6 is the rate constant for the conversion of D-succinimide to D-α-Asp (day^−1), k7 is the rate constant for the conversion of D-β-Asp to D-succinimide (day^−1), k8 is the rate constant for the conversion of D-succinimide to D-β-Asp (day^−1), and f1’(t), f2’(t), f3’(t) and f4’(t) are derivatives of f1(t), f2(t), f3(t) and f4(t). At t = 0 day, [L-α-Asp]% and [L-succinimide]% are 100% and 0% respectively, therefore, Eq. (5-1) can be expressed as: […]
We determined k1, k3, k5 and k7 at five temperatures (50, 60, 70, 80 and 90°C) by using Eq. (6-1), (6-2), (6-3), (6-4). The Arrhenius equation shown below gives the activation energy of the degradation reaction. [drawing 23] […] From Eq. (7), we calculated k1, k3, k5 and k7 at 37°C using k1, k3, k5 and k7 from five temperatures (50, 60, 70, 80 and 90°C).

As for `CC[C@H](C)[C@H](NC(=O)CNC(=O)[C@H](CO)NC(=O)[C@@H](CC(=O)O)NC(=O)[C@H](CC(C)C)NC(=O)[C@@H](NC(=O)[C@@H](N)[C@@H](C)O)C(C)C)C(=O)N[C@@H](CO)C(=O)N[C@@H](CCC(=O)O)C(=O)N[C@H](C(=O)N[C@@H](CCCNC(=N)N)C(=O)O)C(C)C` [T6-Dα] (HELM PEPTIDE1{T.V.L.[dD].S.G.I.S.E.V.R}$$$$V2.0), the “amount of peptide remaining after 10 days of incubation at 70°C” value is listed as 40%. Turning to `CC[C@H](C)[C@H](NC(=O)CNC(=O)[C@H](CO)NC(=O)C[C@@H](NC(=O)[C@H](CC(C)C)NC(=O)[C@@H](NC(=O)[C@@H](N)[C@@H](C)O)C(C)C)C(=O)O)C(=O)N[C@@H](CO)C(=O)N[C@@H](CCC(=O)O)C(=O)N[C@H](C(=O)N[C@@H](CCCNC(=N)N)C(=O)O)C(C)C` [T6-Dβ] (HELM PEPTIDE1{T.V.L.[O=C(O)[C@@H](CC(=O)[*:2])N[*:1]].S.G.I.S.E.V.R}$$$$V2.0), the “amount of peptide remaining after 10 days of incubation at 70°C” value is given as “more than 80%”. The value for `CC[C@H](C)[C@H](NC(=O)CNC(=O)[C@H](CO)NC(=O)[C@H](CC(=O)O)NC(=O)[C@H](CC(C)C)NC(=O)[C@@H](NC(=O)[C@@H](N)[C@@H](C)O)C(C)C)C(=O)N[C@@H](CO)C(=O)N[C@@H](CCC(=O)O)C(=O)N[C@H](C(=O)N[C@@H](CCCNC(=N)N)C(=O)O)C(C)C` [T6-Lα] (H-TVLDSGISEVR-OH) was 30%. As for `CC[C@H](C)[C@H](NC(=O)CNC(=O)[C@H](CO)NC(=O)C[C@H](NC(=O)[C@H](CC(C)C)NC(=O)[C@@H](NC(=O)[C@@H](N)[C@@H](C)O)C(C)C)C(=O)O)C(=O)N[C@@H](CO)C(=O)N[C@@H](CCC(=O)O)C(=O)N[C@H](C(=O)N[C@@H](CCCNC(=N)N)C(=O)O)C(C)C` [T6-Lβ] (HELM PEPTIDE1{T.V.L.[O=C(O)[C@H](CC(=O)[*:2])N[*:1]].S.G.I.S.E.V.R}$$$$V2.0), the entry is “more than 80%”.
